Patent US9750760B2, “Uridine diphosphate derivatives, prodrugs, compositions and methods for treating neurodegenerative disorders” (Tufts University, priority 2012, dated 2017)

Experiments:
[1] = molecular target: T1, P2Y6 receptor (Homo sapiens, UniProt Q15077); experiment: Activation of P2Y6 receptor: receptor induced Ca2+ changes with fluo-4 in 1321N1 astrocytoma cells; assay type: cell-based
T1 construct: expressed in transfected cells; host or cells: 1321N1 human astrocytoma cell line
Experimental: Synthetic ligands were tested for activation of P2Y6 receptor by measuring receptor induced Ca^2+ changes with the fluorescent Ca^2+ indicator fluo-4. 1321N1 human astrocytoma cell lines either expressing P2Y2, P2Y4 or P2Y6 receptors were plated into 24-well plates. Two days after plating, fluorometric measurements were made and responses of cells to a serial dilution of ligands were determined P2Y6 receptor-mediated Ca^2+ fluorescent change was determined by normalized accumulation of fluorescent change of 3 timepoints after ligand administration subtracted by value from ACSF control. Changes in fluorescent intensity were plotted corresponding to ligand concention in GraphPad. Dose-response curve and EC50 for each ligand was estimated using nonlinear curve fit and Sigmoidal dose-response analysis. […] The sodium salt of compound 5 was only effective at elevating Ca^2+ levels when applied to cells expressing P2Y6 receptors and not effective in P2Y2, or P2Y4 receptor expressing cells. The ability of the sodium salt of compound 5 to elevate Ca^2+ signals in P2Y6 expressing cells was attenuated by addition of the P2Y6 receptor antagonist MRS2578.
(§1) Synthetic ligands were tested for activation of P2Y6 receptor by measuring receptor induced Ca^2+ changes with the fluorescent Ca^2+ indicator fluo-4, and results are shown in FIG. 10(A)-(K). 1321N1 human astrocytoma cell lines either expressing P2Y2, P2Y4 or P2Y6 receptors were plated into 24-well plates. Two days after plating, fluorometric measurements were made and responses of cells to a serial dilution of ligands were determined P2Y6 receptor-mediated Ca^2+ fluorescent change was determined by normalized accumulation of fluorescent change of 3 timepoints after ligand administration subtracted by value from ACSF control. Changes in fluorescent intensity were plotted corresponding to ligand concentration in GraphPad. Dose-response curve and EC50 for each ligand was estimated using nonlinear curve fit and Sigmoidal dose-response analysis. […]

[2] = system: PSAPP mice; experiment: Postmortem immunohistochemistry of plaque load in cortex and hippocampus; assay type: in vivo, mouse
Source text: (§2) Heterozygous mutant (K670N/M671L) APP (50% C57B6, 50% SJL) transgenic mice were crossed with heterozygous mutant (A246E) PS-1 (50% C57B6, 50% SJL) transgenic mice to generate heterozygous PSAPP transgenic mice (also referred to as PS-1/APP or PSAPP+/+ mice), which refers to animals heterozygous for the PS-1 A246E transgene and the APP K670N/M671L transgene. Non-transgenic control animals were littermates (also referred to as PSAPP_−/− mice) generated in the breeding for PSAPP transgenic animals. Mouse genotype was determined by Polymerase Chain Reaction (PCR). Both male and female mice of 6-7 months old were used for the experiments below. All animal experiments were performed in accordance with the Tufts Animal Care and Use Committee and with national regulations and policies.
Mice were perfused transcardially with 4% paraformaldehyde and 40 μm Coronal sections were collected. Sections were sequentially incubated in 0.3% H2O2 for 10 minutes, blocking solution for 2 hrs, blocking solution containing the primary antibody (rabbit anti-beta1-42; rabbit anti-beta1-40, from Chemicon International and rat anti-CD45) for 48 hours at 4° C., and blocking solution containing biotinylated antibody or fluorescently-labeled antibody for 2 hours at room temperature. Sections were visualized in a bright field microscope or a confocal microscope, and the optical density was obtained using MetaMorph software.
After repeated imaging, brains were fixed and subjected to postmortem immunohistochemistry with amyloid beta specific antibodies β1-40 and β1-42 to evaluate the plaque load (area occupied by immunostaining of plaque) in cortex and hippocampus.
PSB0474 was systemically administered to PSAPP mice via intraperitoneal injection for 2, 4 and 6 consecutive days. In one group, prior to evaluation and following to administration for 6 consecutive days, treatment was suspended for two weeks (6+2 weeks group). Brains were then fixed and plaque load was evaluated by immunostaining with the amyloid beta specific antibodies: β1-40 and β1-42. Representative images of plaque load in cortex and hippocampus from animals that received injections of PSB0474 according to the foregoing injection schedules are shown in FIG. 5(A)-(D). […] Whereas, when administration of PSB0474 was stopped for 2 weeks following six consecutive days of treatment (denoted as the 6+2 weeks group), β1-40 staining rebounded; although to a level lower than observed in mice treated with saline as a vehicle control. FIGS. 6A and 6B depict the reduction in plaque load (%) the cortex and hippocampus, respectively, in PSAPP mice after treatment with 3-phenacyl-UDP for 2, 4, or 6 consecutive days, as assayed by staining with the β1-40 antibody. FIGS. 6C-6F depict data obtained following administration of different dosages of PSB0474.
To generate these graphs showing plaque load, mice were euthanized, brain sections cut and antibodies directed against Aβ 42 were used to disclose Aβ plaques. Images were acquired digitally and an algorithm was applied to threshold the image so that plaques were isolated from the background. The algorithm then calculated the percent area of the field of view occupied by the plaques.

[3] = system: PSAPP mice; experiment: Contextual fear conditioning test (freezing behavior); assay type: in vivo, mouse
Experimental: On day one, animals were trained in a fear conditioning apparatus for a total of 7 minutes with a two-pairing paradigm of cue and mild foot shock (a 30-s acoustic-conditioned stimulus, 80 dB; a 2-s shock stimulus, 0.5 mA). To evaluate contextual fear learning, the animals were returned to the training context 24 hours post-training, and freezing behavior was scored for 5 minutes. Freezing behavior was monitored by MotorMonitor (Hamilton Kinder) and scored every 5 seconds.
In this study, the fear conditioning associative learning paradigm was used as a rapid cognition assay for PSAPP mice. This study allowed us to probe cognitive function with a single training day followed in 24 hours by tests for contextual and cued fear learning. Contextual fear learning is dependent upon a brain area that has been implicated as a locus for cognitive decline in AD: the hippocampus. Two pairings of CS-US for fear conditioning were followed 24 hours later by testing for contextual and cued fear learning. Previous studies have reported that PSAPP animals appear to have a selective hippocampus-dependent impairment in associative learning following two pairings of conditioned stimuli for fear conditioning.
This represents a decrease in the cognitive impairment observed in the untreated mice.

[4] = system: PSAPP mice; experiment: Two-photon in vivo imaging of methoxyX04-labeled amyloid plaques in barrel cortex; set-up: species or system mouse; settings: vs ACSF
Source text: as §2
In this study, PSAPP mice were anesthetized using isoflurane and a thin-skull preparation was used to minimize the surface damage. Amyloid plaques were visualized with methoxyX04 labeling and blood plasma was labeled with Rhodamine dextran to facilitate re-localization of the same imaging area. Stack images were obtained using a two-photon system (Prairie Technologies) with excitation at 850 nm. The emission was detected by external photomultiplier tubes (525/70; DLCP 575; 607/45 nm).
Animals were anesthetized and immobilized in a stereotaxic frame. […]

[5] = system: PSAPP mice; experiment: Hippocampal long-term potentiation (LTP) recording, CA1, high-frequency stimulation; assay type: in vivo, mouse; settings: acute treatment
Experimental: Hippocampal slices (350 μm thick) were prepared from 6-month-old PSAPP mice. Baseline responses were obtained every 10 seconds and Input-output (I/O) curves, paired-pulse modification and LTP were successively measured. The stimulation intensity was set to a level that gives a value of 30% of the maximum obtained. LTP were induced by high frequency stimulation (HFS, 100 pulses at 100 Hz, four times) or by theta-burst stimulation (TBS, 10 bursts at 5 Hz, repeated 10 times in 15 s intervals).
Accumulated evidence has shown that amyloid peptides naturally secreted or isolated from Alzheimer's brains impair synaptic plasticity, especially hippocampal long-term potentiation (Walsh et al., 2002). Therefore, we further performed LTP recordings in PASPP mice and investigated whether P2Y6 receptor-mediated plaque clearance affects synaptic plasticity. […] First, it was observed that LTP at the schaffer collateral synapse within the CA1 region was depressed in PSAPP mice, as compared with littermates (FIG. 8(A)).

[6] = molecular target: T2, P2Y2 receptor (Homo sapiens, UniProt P41231); experiment: Ca2+ mobilization (fluo-4) in 1321N1 astrocytoma cells expressing P2Y2 receptor; assay type: cell-based; settings: sodium salt; 1321N1 cells expressing P2Y2
T2 construct: expressed in transfected cells; host or cells: 1321N1 human astrocytoma cell line
T2 sequence (P41231 whole entry): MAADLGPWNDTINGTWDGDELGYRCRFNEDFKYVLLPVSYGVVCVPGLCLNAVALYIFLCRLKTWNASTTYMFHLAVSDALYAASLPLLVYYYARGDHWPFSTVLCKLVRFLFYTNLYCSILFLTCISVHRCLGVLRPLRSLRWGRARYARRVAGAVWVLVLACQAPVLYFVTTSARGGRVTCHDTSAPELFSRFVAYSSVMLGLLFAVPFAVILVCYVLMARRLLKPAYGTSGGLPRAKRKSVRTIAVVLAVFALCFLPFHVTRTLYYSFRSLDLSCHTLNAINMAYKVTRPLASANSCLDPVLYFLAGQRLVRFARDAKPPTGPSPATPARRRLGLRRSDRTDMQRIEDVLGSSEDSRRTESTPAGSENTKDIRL
Experimental: as §1, with “fluo-4.” for “fluo-4, and results are shown in FIG. 10(A)-(K).”, “concention” for “concentration”
(§3) Synthetic ligands were tested for activation of P2Y6 receptor by measuring receptor induced Ca^2+ changes with the fluorescent Ca^2+ indicator fluo-4, and results are shown in FIG. 10(A)-(K). […] Two days after plating, fluorometric measurements were made and responses of cells to a serial dilution of ligands were determined P2Y6 receptor-mediated Ca^2+ fluorescent change was determined by normalized accumulation of fluorescent change of 3 timepoints after ligand administration subtracted by value from ACSF control. […]

[7] = molecular target: T3, P2Y4 receptor (Homo sapiens, UniProt P51582); experiment: Ca2+ mobilization (fluo-4) in 1321N1 astrocytoma cells expressing P2Y4 receptor; assay type: cell-based; settings: sodium salt; 1321N1 cells expressing P2Y4
T3 construct: expressed in transfected cells; host or cells: 1321N1 human astrocytoma cell line
T3 sequence (P51582 whole entry): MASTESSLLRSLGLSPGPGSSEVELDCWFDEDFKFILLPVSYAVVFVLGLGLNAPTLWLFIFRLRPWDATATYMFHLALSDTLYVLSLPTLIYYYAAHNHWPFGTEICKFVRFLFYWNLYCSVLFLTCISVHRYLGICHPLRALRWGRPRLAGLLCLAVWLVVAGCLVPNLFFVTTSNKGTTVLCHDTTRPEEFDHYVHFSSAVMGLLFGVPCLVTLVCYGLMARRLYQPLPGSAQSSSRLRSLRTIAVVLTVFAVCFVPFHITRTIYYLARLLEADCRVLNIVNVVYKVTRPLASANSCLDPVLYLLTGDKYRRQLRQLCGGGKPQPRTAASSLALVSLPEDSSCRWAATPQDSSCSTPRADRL
Experimental: as §1, with “fluo-4.” for “fluo-4, and results are shown in FIG. 10(A)-(K).”, “concention” for “concentration”
as §3

[8] = system: PSAPP mice; experiment: Plasma cytokine levels in PSAPP mice; assay type: in vivo, mouse
Experimental: (§4) Inflammatory cytokines were assessed in mouse plasma of both wild type and PS1/APP mice (Alzheimer's mouse model) and the impact of intraperitoneal delivery of compound 5 on circulating cytokines was assessed. Seven daily intraperitoneal injections of 1 ug/kg of compound 5 were delivered to mice. 24 hours following the final injection, plasma was collected. Wildtype, age matched littermates and PSAPP mice (>6 months of age) were treated either with vehicle (phosphate buffered saline) or vehicle containing compound.

[9] = system: wildtype mice; experiment: Plasma cytokine levels in wildtype mice; assay type: in vivo, mouse; settings: wildtype animals, 1 ug/kg i.p. daily x7
Experimental: as §4

[10] = β1-42 antibody, i.p. daily 7 days, vs vehicle

T1 sequence (Q15077 whole entry): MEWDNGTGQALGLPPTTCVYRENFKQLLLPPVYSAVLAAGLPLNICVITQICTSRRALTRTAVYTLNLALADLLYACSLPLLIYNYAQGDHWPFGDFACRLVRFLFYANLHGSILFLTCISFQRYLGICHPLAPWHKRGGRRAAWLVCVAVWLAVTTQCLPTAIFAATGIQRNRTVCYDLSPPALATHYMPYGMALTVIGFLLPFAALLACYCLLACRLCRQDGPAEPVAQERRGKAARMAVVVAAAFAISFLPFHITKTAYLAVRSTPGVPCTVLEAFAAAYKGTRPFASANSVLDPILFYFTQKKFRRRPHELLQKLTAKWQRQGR

## S=C=Nc1cccc(NC(=S)NCCCCNC(=S)Nc2cccc(N=C=S)c2)c1 [MRS2578, reference compound]
[1]; P2Y6 expressing cells, antagonist added
  effect of antagonist on Ca2+ signals elevated by sodium salt of compound 5: attenuated

## O=C(Cn1c(=O)ccn(C2OC(COP(=O)(O)OP(=O)(O)O)C(O)C2O)c1=O)c1ccccc1 (stereo not drawn) [PSB0474, 3-phenacyl-UDP]
[2]; 6 consecutive days then stopped for 2 weeks, level still lower than saline vehicle
  β1-40 staining: rebounded
[2]; higher dose of 1 mg/kg, one week daily
  effects on the efficacy endpoint (plaque load): smaller effects
[2]; i.p. for 4 consecutive days
  immunoreactivity of β1-40 in cortex and hippocampus: significantly decreased
[2]; i.p. for 6 consecutive days
  immunoreactivity of β1-40 in cortex and hippocampus: significantly decreased
[3]; one week treatment with 1 ug/kg, vs vehicle
  memory deficit (freezing time), contextual fear conditioning: rescued the memory deficit

## O=c1ccn([C@@H]2O[C@H](COP(=O)(O)OP(=O)(O)O)[C@@H](O)[C@H]2O)c(=O)[nH]1 [UDP, uridine diphosphate]
[4]; FIG. 2D
  plaque load, day 4/day 1 ratio: reduces
[4]; FIG. 2E
  number of plaques, day 4/day 1 ratio: reduces
[5]; vs ACSF
  LTP (fEPSP %) at schaffer collateral synapse, CA1: significantly increased
[5]; comparable to littermates
  last 15 min potentiation, field excitatory postsynaptic potential (fEPSP): significant increase

## O=c1ccn([C@@H]2O[C@H](COP(=O)(O)OP(=O)(O)O)C(O)[C@@H]2O)c(=O)n1Cc1noc2ccccc12 (stereo partly drawn) [compound 5]
[1]; sodium salt, 1321N1 cells expressing P2Y6
  elevating Ca2+ levels in cells expressing P2Y6 receptors: effective
[1]; sodium salt, Ca2+ fluorescent change, 1321N1 cells expressing P2Y6 receptor
  EC50: 12 nM
[6]
  elevating Ca2+ levels in P2Y2 receptor expressing cells: not effective
[7]
  elevating Ca2+ levels in P2Y4 receptor expressing cells: not effective
[2]; [10]
  Aβ plaque load (%) in cortex: substantial decrease
  Aβ plaque load (%) in hippocampus: substantial decrease
[3]; i.p. daily for 7 consecutive days, vs vehicle control
  freezing behavior (freezing %), contextual fear conditioning: significantly improved
[8]; 1 ug/kg i.p. daily x7
  plasma IL-2 level: reduced
  plasma IL-7 level: reduced
  plasma IL-9 level: reduced
  plasma IL-10 level: reduced
  plasma IL-15 level: reduced
  plasma MIG level: reduced
  plasma MIP1α level: reduced
[8]; 1 ug/kg i.p. daily x7, 24 hours after final injection
  plasma IL-1β level: reduced
[9]
  plasma IL-2 level: reduced
  plasma IL-10 level: reduced
